Source: patent US20230128412A1, “METHODS FOR ENHANCING RECOMBINANT ADENO-[…] YIELD” (Ultragenyx Pharmaceutical Inc., priority 2020, published 2023)

Columns and labels:
Type in all cases: cell-based
[1] = system: HEK293 cells (rAAV8-OTC); test: Effect of additional compounds on rAAV production with HEK293 cells, 24 deep-well plates; conditions: for rAAV titers (summary statement): HEK293 cells
Description: In this example, the effect of compounds other than niacinamide on rAAV production in HEK293 cells was examined. The compounds analyzed in this example included niacin, methyl nicotinate, myo-inositol, pantothenic acid, pyridoxine, choline, thiamine, glucosamine, caffeine, n-acetyl glucosamine, and thymidine.
The experiment was run in 24 deep-well plates using the same cells as described in Example 5 under similar transfection and culture conditions. The concentrations of each compound tested were 1 mM, 3 mM, and 9 mM. […] None of the other compounds tested provided a significant benefit to rAAV titer at any of the three concentrations tested.

[2] = system: HeLa producer cells; test: Effect of niacinamide concentration on rAAV production, HeLa producer cell lines, 24 deep-well plate; conditions: for normalized volumetric rAAV titer: Clade E and F rAAV
Procedure: (§1) In this example, the effect of various concentrations of niacinamide ranging from 0.1 mM to 40 mM on rAAV production was tested in a variety HeLa producer cell lines. The experiment was run in a 24 deep-well plate culture system with a 3 mL working volume, a seeding density of 0.2×10^6 cells in cell culture production medium, and an Ad5 multiplicity of infection (MOI) of 200 vp/cell. […] The capsid serotypes included in this analysis were AAV8, AAV9, rh10, and hu37.

[3] = system: HeLa producer cell line (AAVrh10-FIX); test: Effect of vessel scale (24-DW vs 100 mL shake flask) with niacinamide on rAAV production; conditions: scale removed as a factor; all niacinamide concentrations
Procedure: In this example, the effect of scale using two common vessels (3 mL-deep well (“24-DW”) and 100 mL shake flask (“Flasks”)) with niacinamide on rAAV production was tested. The analysis was conducted using a HeLa producer cell line capable of producing a Clade E rAAV encoding a Factor IX transgene (AAVrh10-FIX). FIG. 3 depicts a bar graph showing rAAV titer (GC/mL) at varying niacinamide concentrations at the different scales. […] The scale and interaction factors were insignificant (p=0.3915 and p=0.1353 respectively).

[4] = system: HeLa clones (AAVrh10-FIX, AAV8-G6Pase, AAVhu37-FVIII); test: Effect of niacinamide on rAAV production with Clade E HeLa clones; conditions: between 1 mM and 5 mM niacinamide; all four clones
Procedure: as §1
Four different HeLa clones were tested using the conditions described in Example 1. FIG. 4A-D show the rAAV titer (GC/mL) per varying niacinamide concentrations for Clone 1 (AAVrh10-FIX) follow-up supernatant, clone 2 (AAV8-G6Pase) supernatant, Clone 3 (AAV8-G6Pase) wide range with no supplement, and Clone 4 (AAVhu37-FVIII) wide range no supplement suspension (i.e., Triton-lysed sample), respectively.

[5] = system: HeLa producer cell line clones (AAV9-ATP7B); test: Effect of niacinamide on rAAV production with Clade F HeLa clones, 2 L bioreactor; conditions: 3 mM niacinamide, both clones
Procedure: In this example, the effect of 3 mM niacinamide on two HeLa producer cell line clones expressing recombinant Clade F AAV encoding a truncated ATP7B transgene (AAV9-ATP7B) was examined in a 2 L bioreactor.

[6] = system: HEK293 cells (rAAV8-OTC); test: Effect of niacinamide concentration on rAAV production with HEK293 cells
Procedure: In this example, the effect of various concentrations of niacinamide ranging from 0.03 mM to 30 mM on rAAV production was tested with HEK293 cells. The experiment was run in 30 mL flasks using a transfection density of 1.3×10^6 to 2.0×10^6 cells/mL. The HEK293 cells used in this experiment were transfected with plasmids enabling the production of rAAV8 encoding an ornithine transcarbamylase (rAAV8-OTC).

[7] = niacinamide between 1 mM and 10 mM

C[N+](C)(C)CCO [choline]
increase in titer ([1]; 3 mM compound): 65% | rAAV titers (summary statement) [1]: can boost rAAV titers

NC(=O)c1cccnc1 [niacinamide]
niacinamide concentration of predicted maximum rAAV titer (3rd-order polynomial fit) ([2]; fit of normalized titer data points, FIG. 2): 5 mM | normalized volumetric rAAV titer ([2]; niacinamide 0.1 mM to 10 mM, relative to no niacinamide): Increases in rAAV titer | normalized volumetric rAAV titer (GC/mL), 3rd-order polynomial fit [2, 7]: Significant increases in rAAV titer | normalized volumetric rAAV titer [2, 7]: most significant increases | rAAV titer, Dunnett's Test [3]: significance at all concentrations | rAAV titer (GC/mL) [4]: titer increase | rAAV titer [5]: significant titer increase | rAAV titer ([6]; 0.3 mM niacinamide, 30 mL flasks): increases in titer | rAAV titer ([6]; 3 mM niacinamide, 30 mL flasks): increases in titer | rAAV titer ([6]; repeat run at 2 L bioreactor scale (data not shown)): increase in titer | level of benefit to rAAV titer compared with the other compounds ([1]; niacinamide versus the 11 compounds of Example 6): substantially and surprisingly superior to the other 11 compounds examined

OC1C(O)C(O)C(O)C(O)C1O (centres unmarked) [myo-inositol]
increase in titer ([1]; 3 mM compound): approximately 20% | increase in titer ([1]; 9 mM compound): approximately 20% | rAAV titers (summary statement) [1]: can boost rAAV titers

COC(=O)c1cccnc1 [methyl nicotinate]
increase in titer ([1]; 3 mM compound): 42% | rAAV titers (summary statement) [1]: can boost rAAV titers

O=C(O)c1cccnc1 [niacin]
increase in titer ([1]; 1 mM compound): 20% | rAAV titers (summary statement) [1]: can boost rAAV titers
